Data from PubChem BioAssay (NCI).
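Tested at 5 concentrations; 48 h exposure; 96-well plates; endpoints linearly interpolated, else capped at highest concentration. The concentration for 50% growth inhibition is given as GI50. TGI: concentration producing complete growth inhibition.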

How the values were obtained:
Test in all cases: NCI tumour cell line growth inhibition, 48 h
786-0 renal = tested on: 786-0 renal
A498 renal = tested on: A498 renal
A549 NSCLC = tested on: A549 NSCLC
ACHN renal = tested on: ACHN renal
CAKI-1 renal = tested on: CAKI-1 renal
COLO 205 colon = tested on: COLO 205 colon
DU-145 prostate = tested on: DU-145 prostate
EKVX NSCLC = tested on: EKVX NSCLC
HCC-2998 colon = tested on: HCC-2998 colon
HCT-116 colon = tested on: HCT-116 colon
HCT-15 colon = tested on: HCT-15 colon
HL-60(TB) leukemia = tested on: HL-60(TB) leukemia
HOP-62 NSCLC = tested on: HOP-62 NSCLC
HOP-92 NSCLC = tested on: HOP-92 NSCLC
HS 578T breast = tested on: HS 578T breast
HT29 colon = tested on: HT29 colon
IGROV1 ovarian = tested on: IGROV1 ovarian
K-562 leukemia = tested on: K-562 leukemia
KM12 colon = tested on: KM12 colon
LOX IMVI melanoma = tested on: LOX IMVI melanoma
M14 melanoma = tested on: M14 melanoma
MALME-3M melanoma = tested on: MALME-3M melanoma
MCF7 breast = tested on: MCF7 breast
MDA-MB-231 breast = tested on: MDA-MB-231 breast
MDA-MB-435 = tested on: MDA-MB-435
MOLT-4 leukemia = tested on: MOLT-4 leukemia
NCI-H226 lung = tested on: NCI-H226 lung
NCI-H23 lung = tested on: NCI-H23 lung
NCI-H460 lung = tested on: NCI-H460 lung
NCI-H522 lung = tested on: NCI-H522 lung
NCI/ADR-RES ovarian = tested on: NCI/ADR-RES ovarian
OVCAR-3 ovarian = tested on: OVCAR-3 ovarian
OVCAR-4 ovarian = tested on: OVCAR-4 ovarian
OVCAR-5 ovarian = tested on: OVCAR-5 ovarian
OVCAR-8 ovarian = tested on: OVCAR-8 ovarian
PC-3 prostate = tested on: PC-3 prostate
RPMI-8226 leukemia = tested on: RPMI-8226 leukemia
RXF 393 renal = tested on: RXF 393 renal
SF-268 CNS = tested on: SF-268 CNS
SF-295 CNS = tested on: SF-295 CNS
SF-539 CNS = tested on: SF-539 CNS
SK-MEL-2 melanoma = tested on: SK-MEL-2 melanoma
SK-MEL-28 melanoma = tested on: SK-MEL-28 melanoma
SK-MEL-5 melanoma = tested on: SK-MEL-5 melanoma
SK-OV-3 ovarian = tested on: SK-OV-3 ovarian
SNB-19 CNS = tested on: SNB-19 CNS
SNB-75 CNS = tested on: SNB-75 CNS
SR leukemia = tested on: SR leukemia
SW-620 colon = tested on: SW-620 colon
TK-10 renal = tested on: TK-10 renal
U251 CNS = tested on: U251 CNS
UACC-62 melanoma = tested on: UACC-62 melanoma
UO-31 renal = tested on: UO-31 renal
BT-549 breast = tested on: BT-549 breast
CCRF-CEM leukemia = tested on: CCRF-CEM leukemia
SN12C renal = tested on: SN12C renal
T-47D breast = tested on: T-47D breast
UACC-257 melanoma = tested on: UACC-257 melanoma

## Cc1ccc(S(=O)(=O)NC(=O)NCCc2cnc[nH]2)cc1
786-0 renal
  TGI: > 100 µM
A498 renal
  TGI: > 100 µM
A549 NSCLC
  TGI: > 100 µM
ACHN renal
  TGI: > 100 µM
CAKI-1 renal
  TGI: > 100 µM
COLO 205 colon
  TGI: > 100 µM
DU-145 prostate
  TGI: > 100 µM
EKVX NSCLC
  TGI: > 100 µM
HCC-2998 colon
  TGI: > 100 µM
HCT-116 colon
  TGI: > 100 µM
HCT-15 colon
  TGI: > 100 µM
HL-60(TB) leukemia
  TGI: > 100 µM
HOP-62 NSCLC
  TGI: > 100 µM
HOP-92 NSCLC
  TGI: > 100 µM
HS 578T breast
  TGI: > 100 µM
HT29 colon
  TGI: > 100 µM
IGROV1 ovarian
  TGI: > 100 µM
K-562 leukemia
  TGI: > 100 µM
KM12 colon
  TGI: > 100 µM
LOX IMVI melanoma
  TGI: > 100 µM
M14 melanoma
  TGI: > 100 µM
MALME-3M melanoma
  TGI: > 100 µM
MCF7 breast
  TGI: > 100 µM
MDA-MB-231 breast
  TGI: > 100 µM
MDA-MB-435
  TGI: > 100 µM
MOLT-4 leukemia
  TGI: > 100 µM
NCI-H226 lung
  TGI: > 100 µM
NCI-H23 lung
  TGI: > 100 µM
NCI-H460 lung
  TGI: > 100 µM
NCI-H522 lung
  TGI: > 100 µM
NCI/ADR-RES ovarian
  TGI: > 100 µM
OVCAR-3 ovarian
  TGI: > 100 µM
OVCAR-4 ovarian
  TGI: > 100 µM
OVCAR-5 ovarian
  TGI: > 100 µM
OVCAR-8 ovarian
  TGI: > 100 µM
PC-3 prostate
  TGI: > 100 µM
RPMI-8226 leukemia
  TGI: > 100 µM
RXF 393 renal
  TGI: > 100 µM
SF-268 CNS
  TGI: > 100 µM
SF-295 CNS
  TGI: > 100 µM
SF-539 CNS
  TGI: > 100 µM
SK-MEL-2 melanoma
  TGI: > 100 µM
SK-MEL-28 melanoma
  TGI: > 100 µM
SK-MEL-5 melanoma
  TGI: > 100 µM
SK-OV-3 ovarian
  TGI: > 100 µM
SNB-19 CNS
  TGI: > 100 µM
SNB-75 CNS
  TGI: > 100 µM
SR leukemia
  TGI: > 100 µM
SW-620 colon
  TGI: > 100 µM
TK-10 renal
  TGI: > 100 µM
U251 CNS
  TGI: > 100 µM
UACC-62 melanoma
  TGI: > 100 µM
UO-31 renal
  TGI: > 100 µM

## COc1ccc(/C=C/C(=O)c2cc(OC)c(OC)c(OC)c2)cc1OCC(=O)Nc1nc2ccc(OC(F)(F)F)cc2s1
786-0 renal
  GI50: 2.26 µM
  TGI: 4.97 µM
A498 renal
  GI50: 7.4 µM
  TGI: 31.7 µM
A549 NSCLC
  GI50: 1.99 µM
  TGI: 4.7 µM
ACHN renal
  GI50: 1.62 µM
  TGI: 3.85 µM
BT-549 breast
  GI50: 2.71 µM
  TGI: 29.6 µM
CAKI-1 renal
  GI50: 2.2 µM
  TGI: 6.03 µM
CCRF-CEM leukemia
  GI50: 2.5 µM
  TGI: > 100 µM
COLO 205 colon
  GI50: 6.37 µM
  TGI: 39.8 µM
DU-145 prostate
  GI50: 1.56 µM
  TGI: 4.55 µM
EKVX NSCLC
  GI50: 5.11 µM
  TGI: > 100 µM
HCC-2998 colon
  GI50: 6.18 µM
  TGI: 25.1 µM
HCT-116 colon
  GI50: 1.43 µM
  TGI: 3.15 µM
HCT-15 colon
  GI50: 0.407 µM
  TGI: 10.9 µM
HOP-62 NSCLC
  GI50: 2.12 µM
  TGI: 4.33 µM
HOP-92 NSCLC
  GI50: 2.14 µM
  TGI: 7.32 µM
HS 578T breast
  GI50: 3.08 µM
  TGI: > 100 µM
HT29 colon
  GI50: 3.66 µM
  TGI: 79.4 µM
IGROV1 ovarian
  GI50: 2.54 µM
  TGI: 5.56 µM
K-562 leukemia
  GI50: 0.438 µM
  TGI: 10.2 µM
KM12 colon
  GI50: 1.51 µM
  TGI: 4.19 µM
LOX IMVI melanoma
  GI50: 0.47 µM
  TGI: 1.95 µM
M14 melanoma
  GI50: 1.72 µM
  TGI: 4.52 µM
MALME-3M melanoma
  GI50: 2.69 µM
  TGI: 13.5 µM
MCF7 breast
  GI50: 1.32 µM
  TGI: 7.77 µM
MDA-MB-231 breast
  GI50: 2.01 µM
  TGI: 5.01 µM
MDA-MB-435
  GI50: 0.3 µM
  TGI: 1.08 µM
MOLT-4 leukemia
  GI50: 2.89 µM
  TGI: > 100 µM
NCI-H226 lung
  GI50: 3.35 µM
  TGI: 32.1 µM
NCI-H23 lung
  GI50: 2.15 µM
  TGI: 6.2 µM
NCI-H460 lung
  GI50: 2.43 µM
  TGI: 6.25 µM
NCI-H522 lung
  GI50: 0.671 µM
  TGI: 3.36 µM
NCI/ADR-RES ovarian
  GI50: 0.492 µM
  TGI: 2.31 µM
OVCAR-3 ovarian
  GI50: 1.52 µM
  TGI: 3.14 µM
OVCAR-4 ovarian
  GI50: 2.07 µM
  TGI: 5.14 µM
OVCAR-5 ovarian
  GI50: 4.76 µM
  TGI: 31.2 µM
OVCAR-8 ovarian
  GI50: 1.54 µM
  TGI: 3.89 µM
PC-3 prostate
  GI50: 3.14 µM
  TGI: 7.82 µM
RPMI-8226 leukemia
  GI50: 2.02 µM
  TGI: > 100 µM
RXF 393 renal
  GI50: 1.58 µM
  TGI: 3.74 µM
SF-268 CNS
  GI50: 1.2 µM
  TGI: 8.5 µM
SF-295 CNS
  GI50: 2.21 µM
  TGI: 6.09 µM
SF-539 CNS
  GI50: 0.293 µM
  TGI: 1.18 µM
SK-MEL-2 melanoma
  GI50: 4.97 µM
  TGI: 27.1 µM
SK-MEL-28 melanoma
  GI50: 3.31 µM
  TGI: 25.9 µM
SK-MEL-5 melanoma
  GI50: 2.03 µM
  TGI: 10.5 µM
SK-OV-3 ovarian
  GI50: 2.16 µM
  TGI: 5.07 µM
SN12C renal
  GI50: 1.74 µM
  TGI: 4.67 µM
SNB-19 CNS
  GI50: 1.58 µM
  TGI: 51.8 µM
SNB-75 CNS
  GI50: 0.34 µM
  TGI: 2.3 µM
SR leukemia
  GI50: 0.391 µM
  TGI: 3.66 µM
SW-620 colon
  GI50: 1.08 µM
  TGI: > 100 µM
T-47D breast
  GI50: 3.08 µM
  TGI: 10.9 µM
TK-10 renal
  GI50: 2.08 µM
  TGI: 4.62 µM
U251 CNS
  GI50: 0.703 µM
  TGI: 2.58 µM
UACC-257 melanoma
  GI50: 8.08 µM
  TGI: > 100 µM
UACC-62 melanoma
  GI50: 9.52 µM
  TGI: 42.1 µM
UO-31 renal
  GI50: 1.61 µM
  TGI: 5.07 µM
